These compounds were tested against recombinant human Cathepsin S (Homo sapiens, UniProt P25774) (assay: Cathepsin S assay: inhibition of recombinant human Cathepsin S (Z-Val-Val-Arg-AMC fluorescence)).
Type: biochemical
Protocol: Cathepsin S Assay Procedure
25 μl of a 2 mg/l solution of activated recombinant human cathepsin S, in assay buffer, is then added to the well, yielding a final inhibitor concentration of 10 μM.
Enzyme activity is determined by measuring the fluorescence of the liberated aminomethylcoumarin at […] using 390 nm excitation, at 20 minutes. Percentage enzyme activity is calculated by comparison of this activity to that of a solution containing no inhibitor.

Chain of recombinant human Cathepsin S (P25774 115-331): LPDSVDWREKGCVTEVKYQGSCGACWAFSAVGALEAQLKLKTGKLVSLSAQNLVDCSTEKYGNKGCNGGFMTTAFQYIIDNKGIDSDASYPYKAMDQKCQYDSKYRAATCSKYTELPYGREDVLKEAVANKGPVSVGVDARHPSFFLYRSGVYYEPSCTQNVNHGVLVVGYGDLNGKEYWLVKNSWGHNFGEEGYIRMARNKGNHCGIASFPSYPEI

Row | Compound | IC50
1 | CCOc1ccc(-c2cc3[nH]c(CN4CCNC(=O)C4)nc3c(C#N)n2)cc1C(F)(F)F [Example 5d, 6-(4-Ethoxy-3-trifluoromethyl-phenyl)-2-(3-oxo-piperazine-1-ylmethyl)-1H-imidazo[4,5,c]pyridine-4-carbonitrile] | < 0.1 µM
2 | CCOc1ccc(-c2cc3[nH]c(CN4CNC(=O)C4)nc3c(C#N)n2)cc1C(F)(F)F [Example 13d, 6-(4-Ethoxy-3-trifluoromethyl-phenyl)-2-(4-oxo-imidazolidin-1-ylmethyl)-1H-imidazo[4,5-c]pyridine-4-carbonitrile] | < 0.1 µM
3 | CCOc1ccc(-c2cc3c(ncn3CCCN3CCOCC3)c(C#N)n2)cc1C(F)(F)F [Example 10a, 6-(4-Ethoxy-3-trifluoromethyl-phenyl)-1-(3-morpholin-4-yl-propyl)-1H-imidazo[4,5-c]pyridine-4-carbonitrile] | < 0.1 µM
4 | CCOc1ccc(-c2cc3c(ncn3CCCN(C)C)c(C#N)n2)cc1C(F)(F)F [Example 10f, 1-(3-Dimethylamino-propyl)-6-(4-ethoxy-3-trifluoromethyl-phenyl)-1H-imidazo-[4,5-c]pyridine-4-carbonitrile] | < 0.1 µM
5 | CCOc1ccc(-c2cc3[nH]c(CN4CCN(CCOC)CC4)nc3c(C#N)n2)cc1C(F)(F)F [Example 13i, 6-(4-Ethoxy-3-trifluoromethyl-phenyl)-2-[4-(2-methoxy-ethyl)-piperazin-1-yl-methyl]-1H-imidazo[4,5-c]pyridine-4-carbonitrile] | < 0.1 µM
6 | CCOc1ccc(-c2cc3c(ncn3CCN(C)C)c(C#N)n2)cc1C(F)(F)F [Example 9f, 1-(2-Dimethylamino-ethyl)-6-(4-ethoxy-3-trifluoromethyl-phenyl)-1H-imidazo [4,5-c]pyridine-4-carbonitrile] | < 0.1 µM
7 | CCOc1ccc(-c2cc3c(ncn3CCN3CCCCC3)c(C#N)n2)cc1C(F)(F)F [Example 9d, 6-(4-Ethoxy-3-trifluoromethyl-phenyl)-1-(2-piperidin-1-yl-ethyl)-1H-imidazo[4,5-c]-pyridine-4-carbonitrile] | < 0.1 µM
8 | CCOc1ccc(-c2cc3[nH]c(CN4CCN(C)CC4)nc3c(C#N)n2)cc1C(F)(F)F [Example 11a, 6-(4-Ethoxy-3-trifluoromethyl-phenyl)-2-(4-methyl-piperazin-1-ylmethyl)-1H-imidazo-[4,5-c]pyridine-4-carbonitrile] | < 0.1 µM
9 | CCOc1ccc(-c2cc3c(ncn3CCN3CCOCC3)c(C#N)n2)cc1C(F)(F)F [Example 9a, 6-(4-Ethoxy-3-trifluoromethyl-phenyl)-1-(2-morpholin-4-yl-ethyl)-1H-imidazo[4,5-c]pyridine-4-carbonitrile] | < 0.1 µM
10 | CCOc1ccc(-c2cc3[nH]c(CNCCO)nc3c(C#N)n2)cc1C(F)(F)F [Example 11h, 6-(4-Ethoxy-3-trifluoromethyl-phenyl)-2-[(2-hydroxy-ethylamino)-methyl]-1H-imidazo[4,5-c]pyridine-4-carbonitrile] | < 0.1 µM
11 | CCOc1ccc(-c2cc3c(ncn3CC(=O)O)c(C#N)n2)cc1C(F)(F)F [Example 3, [4-Cyano-6-(4-ethoxy-3-trifluoromethyl-phenyl)-imidazo[4,5-c]pyridin-1-yl]-acetic acid] | < 0.1 µM
12 | CCOc1ccc(-c2cc3[nH]cnc3c(C#N)n2)cc1C(F)(F)F [Example 1, 6-(4-Ethoxy-3-trifluoromethyl-phenyl)-1H-imidazo[4.5-c]pyridine-4-carbonitrile] | < 0.1 µM

Reference: patent US7687515B2, “6-phenyl-1H-imidazo[4,5-c]pyridine-4-carbonitrile derivatives” (priority 2006, dated 2010)
